This is an account of results in patent US20160318933A1, “FUSED PYRAZOLE DERIVATIVE” (SUMITOMO DAINIPPON PHARMA CO., LTD., priority 2013, published 2016).

This experiment has as its target T1, human brain-derived dopamine D4 receptor (Homo sapiens, UniProt P21917).
T1 construct: expressed in transfected cells; host or cells: CHO (CHO-K1) or HEK293 cells
T1 sequence (P21917 1-419): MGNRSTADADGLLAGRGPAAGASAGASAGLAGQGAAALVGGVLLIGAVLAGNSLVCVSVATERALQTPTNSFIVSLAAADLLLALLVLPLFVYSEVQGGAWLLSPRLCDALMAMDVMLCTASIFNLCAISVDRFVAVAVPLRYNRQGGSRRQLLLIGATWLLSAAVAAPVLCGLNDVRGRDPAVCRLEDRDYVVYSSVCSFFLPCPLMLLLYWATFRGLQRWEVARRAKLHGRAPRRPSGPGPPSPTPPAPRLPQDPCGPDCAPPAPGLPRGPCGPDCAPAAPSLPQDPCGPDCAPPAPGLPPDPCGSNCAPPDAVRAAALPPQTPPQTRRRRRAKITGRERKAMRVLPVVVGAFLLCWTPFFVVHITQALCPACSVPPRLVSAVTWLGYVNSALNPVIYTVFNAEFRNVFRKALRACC
Description: Agonistic activity in G protein dependent pathway of dopamine D4 receptor (aequorin intracellular calcium luminescence, FDSS). It counts as cell-based. To be noted: for EC50: concentration required to achieve a 50% response of Emax, CHO-K1 or HEK293 cells transfected with D4 receptor; for Emax: read-out: Maximal activity on D4 receptor (%). The source says: The G protein dependent pathway is a pathway for transmitting signals in cells via a second messenger by stimulating a G protein through the binding of guanosine triphosphate (GTP) to the G protein. When GPCRs are activated by the binding of a ligand, a G protein binds to the GPCRs, and thereby GTP binds to a Gα subunit that is one of G protein subunits and a Gγβ subunit is dissociated. The activated Gα subunit regulates intracellular cAMP levels by the activation or inhibition of an adenylate cyclase, and regulates intracellular calcium levels by the activation of phospholipase C to transmit signals in cells.
The agonistic activities of the present compounds in the G protein dependent pathway were evaluated on the basis of intracellular calcium levels as follows. CHO-K1 or HEK293 cell lines transfected with D4 receptor genes were seeded in a 384-well plate, and incubated in a CO2 incubator at 37° C. for 24 hours, and then a solution of the present compound in DMSO was added into cells preloaded with coelenterazine to measure the change in luminescent signals with a FDSS (Hamamatsu Photonics K.K.). […] The agonistic activity of the present compound was calculated according to the measured luminescent signals, as the maximal activity (Emax) of the present compound. EC50 value was calculated as the concentration of the present compound required to achieve a 50% response of Emax.

One may read the EC50 as the concentration needed to bring the measured effect to its halfway point. Take `c1ccc(CN2CCn3nc(-c4ccccn4)cc3C2)cc1` [Example 1, 5-Benzyl-2-(pyridin-2-yl)-4,5,6,7-tetrahydropyrazolo[1,5-a]pyrazine]: the EC50 was found to be 20 nM and the Emax was found to be 71%.
Take `Fc1ccc(CN2CCn3nc(-c4ccccn4)cc3C2)cc1` [Example 2]: the EC50 was determined as 28 nM and the Emax came out at 83%.
The like results for `c1ccc(-c2cc3n(n2)CCN(Cc2n[nH]c4ccccc24)C3)nc1` [Example 3] were, in that order, 19 nM and 60%.
Turning to `Fc1ccc2[nH]nc(CN3CCn4nc(-c5ccccn5)cc4C3)c2c1` [Example 4], the EC50 was determined as 17 nM and the Emax came to 60%.
For `c1ccc(CN2CCCn3nc(-c4ccccn4)cc3C2)cc1` [Example 8], the EC50 turned out to be 105 nM and the Emax was found to be 37%.
The like results for `Fc1ccc(CN2CCCn3nc(-c4ccccn4)cc3C2)cc1` [Example 9] were, in that order, 89 nM and 34%.
The like results for `c1ccc(-c2cc3n(n2)CCN(Cc2ccc4[nH]ncc4c2)C3)nc1` [Example 13] were, in that order, 116 nM and 65%.
As for `c1ccc(-c2cc3n(n2)CCN(Cc2cccc4[nH]cnc24)C3)nc1` [Example 14], the EC50 turned out to be 84 nM and the Emax amounted to 46%.
The like results for `c1ccc(-c2cc3n(n2)CCN(Cc2ccc4cn[nH]c4c2)C3)nc1` [Example 15] were, in that order, 9.2 nM and 62%.
The like results for `COc1ccccc1-c1cc2n(n1)CCN(Cc1ccc(C)nc1N)C2` [Example 16] were, in that order, 138 nM and 51%.
The like results for `COc1ccccc1-c1cc2n(n1)CCN(Cc1cn3ccccc3n1)C2` [Example 17] were, in that order, 25 nM and 52%.
On to `COc1ccccc1-c1cc2n(n1)CCN(Cc1ccc(F)c(C#N)c1)C2` [Example 18], for which the EC50 was 60 nM and the Emax was found to be 83%.
As for `Cc1ccc(CN2CCn3nc(-c4ccccn4)cc3C2)c(N)n1` [Example 19], the EC50 is 54 nM and the Emax was determined as 63%.
The like results for `O=C1CCc2ccc(CN3CCn4nc(-c5ccccn5)cc4C3)cc2N1` [Example 20] were, in that order, 51 nM and 42%.
For `Nc1nc(C(F)(F)F)ccc1CN1CCn2nc(-c3ccccn3)cc2C1` [Example 21], in that order: 47 nM and 59%.
For the compound `CN1Cc2ccc(CN3CCn4nc(-c5ccccn5)cc4C3)cc2C1` [Example 23, 5-[(2-Methyl-2,3-dihydro-1H-isoindol-5-yl)methyl]-2-(pyridin-2-yl)-4,5,6,7-tetrahydropyrazolo[1,5-a]pyrazine], the EC50 was 25 nM and the Emax worked out at 71%.
The like results for `COc1ccccc1-c1cc2n(n1)CCN(Cc1ccc(F)cc1F)C2` [Example 25, 5-(2,4-Difluorobenzyl)-2-(2-methoxyphenyl)-4,5,6,7-tetrahydropyrazolo[1,5-a]pyrazine] were, in that order, 100 nM and 57%.
For `Cc1ccccc1CN1CCn2nc(-c3ccccn3)cc2C1` [Example 26], in that order: 61 nM and 49%.
For `Cc1cccc(CN2CCn3nc(-c4ccccn4)cc3C2)c1` [Example 27], in that order: 0.5 nM and 62%.
As to `N#Cc1ccc(CN2CCn3nc(-c4ccccn4)cc3C2)cc1` [Example 29], the EC50 is 38 nM and the Emax was determined as 48%.
With `Cc1ncc(CN2CCn3nc(-c4ncccc4C)cc3C2)c(N)n1` [Example 30, 2-Methyl-5-{[2-(3-methylpyridin-2-yl)-6,7-dihydropyrazolo[1,5-a]pyrazin-5(4H)-yl]methyl}pyrimidine-4-amine], the EC50 is 79 nM and the Emax stood at 53%.
As for `Cc1c(-c2ccccn2)nn2c1CN(Cc1ccccc1)CCC2` [Example 32, 5-Benzyl-3-methyl-2-(pyridin-2-yl)-5,6,7,8-tetrahydro-4H-pyrazolo[1,5-a][1,4]diazepine], the EC50 was determined as 19 nM and the Emax worked out at 52%.
Take `Fc1c(-c2ccccn2)nn2c1CN(Cc1ccccc1)CCC2` [Example 33, 5-Benzyl-3-fluoro-2-(pyridin-2-yl)-5,6,7,8-tetrahydro-4H-pyrazolo[1,5-a][1,4]diazepine]: the EC50 stood at 63 nM and the Emax was 41%.
Consider `Cc1cccnc1-c1cc2n(n1)CCN(Cc1ccc3cn[nH]c3c1)C2` [Example 34], for which the EC50 was determined as 5.3 nM and the Emax is 73%.
As for `Cc1cccnc1-c1cc2n(n1)CCN(Cc1n[nH]c3ccccc13)C2` [Example 35], the concentration for a half-maximal effect (EC50) is 4.3 nM and the Emax was found to be 87%.
The like results for `N#Cc1cc(CN2CCn3nc(-c4ccccn4)cc3C2)ccc1F` [Example 36] were, in that order, 40 nM and 77%.
The like results for `Cc1n[nH]c2ccc(CN3CCn4nc(-c5ccccn5)cc4C3)cc12` [Example 37] were, in that order, 62 nM and 54%.
For `c1ccc(-c2cc3n(n2)CCN(Cc2ccc4occc4c2)C3)nc1` [Example 39], in that order: 35 nM and 69%.
On to `Cc1cccnc1-c1cc2n(n1)CCN(Cc1n[nH]c3c(F)cccc13)C2` [Example 40], for which the EC50 amounted to 11 nM and the Emax is 70%.
For `Cc1cccnc1-c1cc2n(n1)CCN(Cc1ccc3c(c1)NC(=O)CC3)C2` [Example 41], in that order: 46 nM and 54%.
`Cc1nc2c(CN3CCn4nc(-c5ccccn5)cc4C3)cccc2[nH]1` [Example 42]: the EC50 turned out to be 100 nM and the Emax is 50%.
The like results for `Cc1ccc(CN2CCn3nc(-c4ncccc4C)cc3C2)c(N)n1` [Example 43] were, in that order, 15 nM and 77%.
Take `Cc1cccnc1-c1cc2n(n1)CCN(Cc1n[nH]c3ccc(F)cc13)C2` [Example 44]: the EC50 was 26 nM and the Emax stood at 98%.
The like results for `Cc1cccnc1-c1cc2n(n1)CCN(Cc1n[nH]c3cccc(C)c13)C2` [Example 45] were, in that order, 157 nM and 54%.
For `Cc1ncc(CN2CCn3nc(-c4ncccc4F)cc3C2)c(N)n1` [Example 46], in that order: 45 nM and 59%.
The like results for `Cc1cccnc1-c1cc2n(n1)CCN(Cc1ccc(C(F)(F)F)cc1F)C2` [Example 47] were, in that order, 71 nM and 65%.
For the compound `Cc1cccnc1-c1cc2n(n1)CCN(Cc1ccc(C(F)(F)F)c(F)c1)C2` [Example 48], the EC50 is 96 nM and the Emax came to 50%.
As to `Cc1cccnc1-c1cc2n(n1)CCN(Cc1ccc(CF)cc1)C2` [Example 49], the EC50 was determined as 19 nM and the Emax turned out to be 84%.
Consider `Cc1ccc(CN2CCn3nc(-c4ncccc4F)cc3C2)cn1` [Example 50], for which the EC50 stood at 61 nM and the Emax was 41%.
The like results for `O=C1NCc2cc(CN3CCn4nc(-c5ccccn5)cc4C3)ccc21` [Example 51] were, in that order, 70 nM and 32%.
For `Cc1cccnc1-c1cc2n(n1)CCN(Cc1ccc(OC(F)(F)F)cc1C#N)C2` [Example 52], in that order: 34 nM and 58%.
The like results for `Cc1ccc(CN2CCn3nc(-c4ncccc4C)cc3C2)cc1` [Example 53] were, in that order, 10 nM and 99%.
In the case of `Cc1cccc(CN2CCn3nc(-c4ncccc4C)cc3C2)c1` [Example 54], the EC50 was 7 nM and the Emax stood at 80%.
For `Cc1cccnc1-c1cc2n(n1)CCN(Cc1ccc(C(F)(F)F)cc1)C2` [Example 55], in that order: 67 nM and 92%.
The like results for `Cc1cccnc1-c1cc2n(n1)CCN(Cc1ccc(Cl)cc1)C2` [Example 56] were, in that order, 12 nM and 78%.
For `Cc1cccnc1-c1cc2n(n1)CCN(Cc1ccc(C#N)cc1)C2` [Example 57], in that order: 83 nM and 77%.
As to `Cc1cccnc1-c1cc2n(n1)CCN(Cc1ccc(F)cc1)C2` [Example 58], the 50% effective concentration (EC50) was found to be 22 nM and the Emax amounted to 81%.
In the case of `Cc1cccnc1-c1cc2n(n1)CCN(Cc1cccc(Cl)c1)C2` [Example 59], the EC50 came out at 36 nM and the Emax was 58%.
The like results for `Cc1cccnc1-c1cc2n(n1)CCN(Cc1cccc(C(F)(F)F)c1)C2` [Example 60] were, in that order, 99 nM and 59%.
